Experimental findings from US11512097B2, “Heterocyclic compounds as Delta-5 desaturase inhibitors and methods of use” (Amgen Inc., priority 2019, dated 2022) are described below.

As a reminder, the IC50 is the concentration needed to halve the response being measured. Read a low IC50 as greater potency.

For this test, the target named is T1, Delta-5-Desaturase (D5D), membrane preparations of D5D-overexpressing HEK293 6E cells (Homo sapiens, UniProt O60427).
T1 construct: expressed in transfected cells; host or cells: HEK293 6E cells (membrane preparation)
T1 sequence (O60427 whole entry, species assumed): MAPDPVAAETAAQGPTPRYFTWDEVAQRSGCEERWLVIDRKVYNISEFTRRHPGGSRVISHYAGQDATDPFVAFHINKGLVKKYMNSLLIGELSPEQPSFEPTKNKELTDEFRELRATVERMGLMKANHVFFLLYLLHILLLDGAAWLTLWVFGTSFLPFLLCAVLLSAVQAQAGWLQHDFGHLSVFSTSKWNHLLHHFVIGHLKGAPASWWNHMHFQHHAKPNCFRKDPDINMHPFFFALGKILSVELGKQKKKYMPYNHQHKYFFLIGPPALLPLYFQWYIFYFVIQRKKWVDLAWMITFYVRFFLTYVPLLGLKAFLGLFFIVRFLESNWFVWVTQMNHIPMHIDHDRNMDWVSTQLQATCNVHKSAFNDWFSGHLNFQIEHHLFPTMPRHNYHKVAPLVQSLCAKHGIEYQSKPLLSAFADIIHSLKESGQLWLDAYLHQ
Put plainly: In vitro measurement of Delta-5-Desaturase inhibitory activity using DGLA-CoA and Arachidonyl-CoA mass spectrometric assays. As to conditions: D5D membrane 10 μg/mL, one-hour incubation, average of at least two independent runs. Type of test: biochemical. Summed up: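 Substrate mix (0.01 mM DGLA with NADH, ATP, coenzyme A) was incubated 1 h at room temperature with HEK293 6E D5D membranes at 10 μg/mL final, pH 7.5. Negative-mode SPE-MS/MS monitored DGLA-CoA (m/z 526.6) and arachidonyl-CoA (m/z 525.6). Inhibition normalised to DMSO and no-enzyme wells gave IC50s, mean of ≥2 runs.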
As to `Cc1cn2c(=O)c(-c3cnn(CC(F)(F)C(F)(F)F)c3)c(C(F)(F)F)nc2n1-c1cn[nH]c1` [Example 103, 2-methyl-6-[1-(2,2,3,3,3-pentafluoropropyl)-1H-pyrazol-4-yl]-1-(1H-pyrazol-4-yl)-7-(trifluoromethyl)-1H,5H-imidazo[1,2-a]pyrimidin-5-one], the IC50 was found to be 301 nM.

On to `Cc1cn2c(=O)c(-c3ccc(OCC(F)(F)F)cc3)c(C(F)(F)F)nc2n1C` [Example 54, 1,2-dimethyl-6-[4-(2,2,2-trifluoroethoxy)phenyl]-7-(trifluoromethyl)-1H,5H-imidazo[1,2-a]pyrimidin-5-one], for which the IC50 came to 17.1 nM.

As to `Cc1cn2c(=O)c(-c3cnn(CC4COC4)c3)c(C(F)(F)F)nc2n1C` [Example 65, 1,2-dimethyl-6-{1-[(oxetan-3-yl)methyl]-1H-pyrazol-4-yl}-7-(trifluoromethyl)-1H,5H-imidazo[1,2-a]pyrimidin-5-one], inhibition was half-maximal at 815 nM (IC50). Against the preceding compound, the IC50 is about 48-fold higher.

For `Cc1nn2c(=O)c(-c3cnn(CCC(F)(F)F)c3)c(C(F)(F)F)nc2s1` [Example 20, 2-methyl-7-(trifluoromethyl)-6-[1-(3,3,3-trifluoropropyl)-1H-pyrazol-4-yl]-5H-[1,3,4]thiadiazolo[3,2-a]pyrimidin-5-one], the IC50 was found to be 32.9 nM.

As to `O=c1c(-c2cnn(CC(F)(F)C(F)(F)F)c2)c(C(F)(F)F)nc2sc(CO)cn12` [Example 32, 2-(hydroxymethyl)-6-[1-(2,2,3,3,3-pentafluoropropyl)-1H-pyrazol-4-yl]-7-(trifluoromethyl)-5H-[1,3]thiazolo[3,2-a]pyrimidin-5-one], half-maximal inhibition (IC50) was put at 45.6 nM.

The compound `Cc1cccc(-n2c(C)cn3c(=O)c(-c4cnn(CC(F)(F)C(F)(F)F)c4)c(C(F)(F)F)nc23)n1` [Example 96, 2-methyl-1-(6-methylpyridin-2-yl)-6-[1-(2,2,3,3,3-pentafluoropropyl)-1H-pyrazol-4-yl]-7-(trifluoromethyl)-1H,5H-imidazo[1,2-a]pyrimidin-5-one] had an IC50 of 19.4 nM.

`O=c1c(-c2cnn(CC(F)(F)C(F)(F)F)c2)c(C(F)(F)F)nc2sc(C3CC3)nn12` [Example 11, 2-cyclopropyl-6-[1-(2,2,3,3,3-pentafluoropropyl)-1H-pyrazol-4-yl]-7-(trifluoromethyl)-5H-[1,3,4]thiadiazolo[3,2-a]pyrimidin-5-one] displayed an IC50 of 133 nM. This IC50 lies about 6.9-fold higher than the previous one.

The compound `O=c1c(-c2ccc(OCC(F)(F)F)cc2)c(C(F)(F)F)nc2sc(Cl)cn12` [Example 34, 2-chloro-6-[4-(2,2,2-trifluoroethoxy)phenyl]-7-(trifluoromethyl)-5H-[1,3]thiazolo[3,2-a]pyrimidin-5-one] had an IC50 of 4.8 nM.

Turning to `Cc1cn(C)n2c(=O)c(-c3cnn(CC(F)(F)C(F)(F)F)c3)c(C(F)(F)F)nc12` [Example 18, 1,3-dimethyl-6-[1-(2,2,3,3,3-pentafluoropropyl)-1H-pyrazol-4-yl]-5-(trifluoromethyl)-1H,7H-pyrazolo[1,5-a]pyrimidin-7-one], it took 3630 nM to reach half-maximal inhibition (IC50).

Turning to `Cn1ccn2c(=O)c(-c3cnn(CC(F)(F)C(F)(F)F)c3)c(C(F)(F)F)nc12` [Example 37, 1-methyl-6-[1-(2,2,3,3,3-pentafluoropropyl)-1H-pyrazol-4-yl]-7-(trifluoromethyl)-1H,5H-imidazo[1,2-a]pyrimidin-5-one], 11.5 nM corresponded to half-maximal inhibition (IC50).

Take `Cc1cn2c(=O)c(-c3cnn(CC(F)(F)C(F)(F)F)c3)c(C(F)(F)F)nc2n1-c1cccnc1` [Example 98, 2-methyl-6-[1-(2,2,3,3,3-pentafluoropropyl)-1H-pyrazol-4-yl]-1-(pyridin-3-yl)-7-(trifluoromethyl)-1H,5H-imidazo[1,2-a]pyrimidin-5-one]: the midpoint of inhibition, the IC50, lay at 2400 nM.

The compound `CC1Cn2c(nc(C(F)(F)F)c(-c3cnn(CC(F)(F)C(F)(F)F)c3)c2=O)S1` (stereo not drawn) [Example 24, 2-methyl-6-[1-(2,2,3,3,3-pentafluoropropyl)-1H-pyrazol-4-yl]-7-(trifluoromethyl)-2H,3H,5H-[1,3]thiazolo[3,2-a]pyrimidin-5-one] gave a 50% inhibitory concentration (IC50) of 168 nM. This IC50 is about 14-fold lower than that of the compound before.

With `CCn1c(C)cn2c(=O)c(-c3cnn(CC(F)(F)C(F)(F)F)c3)c(C(F)(F)F)nc12` [Example 56, 1-ethyl-2-methyl-6-[1-(2,2,3,3,3-pentafluoropropyl)-1H-pyrazol-4-yl]-7-(trifluoromethyl)-1H,5H-imidazo[1,2-a]pyrimidin-5-one], the IC50 is 34.3 nM.

In the case of `Cc1cn2c(=O)c(-c3cnn(CCC(F)(F)F)c3)c(C(F)(F)F)nc2n1CC1CC(F)(F)C1` [Example 82, 1-[(3,3-difluorocyclobutyl)methyl]-2-methyl-7-(trifluoromethyl)-6-[1-(3,3,3-trifluoropropyl)-1H-pyrazol-4-yl]-1H,5H-imidazo[1,2-a]pyrimidin-5-one], inhibition was half-maximal at 2030 nM (IC50). This IC50 is about 59-fold higher than that of the compound before.

`Cc1cn2c(=O)c(-c3cnn(CC(F)(F)C(F)(F)F)c3)c(C(F)(F)F)nc2n1CCO` [Example 79, 1-(2-hydroxyethyl)-2-methyl-6-[1-(2,2,3,3,3-pentafluoropropyl)-1H-pyrazol-4-yl]-7-(trifluoromethyl)-1H,5H-imidazo[1,2-a]pyrimidin-5-one] gave an IC50 of 11.7 nM.

The compound `O=c1c(-c2cnn(CC(F)(F)C(F)(F)F)c2)c(C(F)(F)F)nc2n1CCS2` [Example 22, 6-[1-(2,2,3,3,3-pentafluoropropyl)-1H-pyrazol-4-yl]-7-(trifluoromethyl)-2H,3H,5H-[1,3]thiazolo[3,2-a]pyrimidin-5-one] yielded a concentration for half-maximal inhibition (IC50) of 14.3 nM. This IC50 and that of the compound before are within 1.5-fold of each other.

In turn, `CCc1nc2sc(C)nn2c(=O)c1-c1cnn(CC(F)(F)C(F)(F)F)c1` [Example 15, 7-ethyl-2-methyl-6-[1-(2,2,3,3,3-pentafluoropropyl)-1H-pyrazol-4-yl]-5H-[1,3,4]thiadiazolo[3,2-a]pyrimidin-5-one] came in with an IC50 of 1510 nM.

For the compound `Cn1ccc2nc(C(F)(F)F)c(-c3cnn(CC(F)(F)C(F)(F)F)c3)c(=O)n21` [Example 17, 1-methyl-6-[1-(2,2,3,3,3-pentafluoropropyl)-1H-pyrazol-4-yl]-5-(trifluoromethyl)-1H,7H-pyrazolo[1,5-a]pyrimidin-7-one], half-maximal inhibition (IC50) was put at 363 nM.

As for `Cc1cn2c(=O)c(-c3ccc(OCC(F)(F)F)cc3)c(C(F)(F)F)nc2[nH]1` [Example 75, 2-methyl-6-[4-(2,2,2-trifluoroethoxy)phenyl]-7-(trifluoromethyl)-1H,5H-imidazo[1,2-a]pyrimidin-5-one], the midpoint of inhibition, the IC50, lay at 6.3 nM.

Compound `Cc1cn2c(=O)c(-c3cnn(CCC(F)(F)F)c3)c(C(F)(F)F)nc2n1CC1CC1` [Example 66, 1-(cyclopropylmethyl)-2-methyl-7-(trifluoromethyl)-6-[1-(3,3,3-trifluoropropyl)-1H-pyrazol-4-yl]-1H,5H-imidazo[1,2-a]pyrimidin-5-one] came in with a half-maximal inhibitory concentration (IC50) of 6.6 nM.

`COC(=O)n1c(C)cn2c(=O)c(-c3cnn(CC(F)(F)C(F)(F)F)c3)c(C(F)(F)F)nc12` [Example 80, methyl 2-methyl-5-oxo-6-[1-(2,2,3,3,3-pentafluoropropyl)-1H-pyrazol-4-yl]-7-(trifluoromethyl)-1H,5H-imidazo[1,2-a]pyrimidine-1-carboxylate] returned an IC50 of 54.7 nM.

As for `Cc1cn2c(=O)c(-c3cnn(CC4CC4(F)F)c3)c(C(F)(F)F)nc2n1C` (stereo not drawn) [Example 59, 6-{1-[(2,2-difluorocyclopropyl)methyl]-1H-pyrazol-4-yl}-1,2-dimethyl-7-(trifluoromethyl)-1H,5H-imidazo[1,2-a]pyrimidin-5-one], the IC50 worked out at 11 nM.

`O=c1c(-c2cnn(CCC(F)(F)F)c2)c(C(F)(F)F)nc2sccn12` [Example 8, 7-(trifluoromethyl)-6-[1-(3,3,3-trifluoropropyl)-1H-pyrazol-4-yl]-5H-[1,3]thiazolo[3,2-a]pyrimidin-5-one] yielded an IC50 of 4.6 nM.

Regarding `O=c1c(-c2cnn(CC(F)(F)C(F)(F)F)c2)c(C(F)(F)F)nc2sc(CF)nn12` [Example 104, 2-(fluoromethyl)-6-[1-(2,2,3,3,3-pentafluoropropyl)-1H-pyrazol-4-yl]-7-(trifluoromethyl)-5H-[1,3,4]thiadiazolo[3,2-a]pyrimidin-5-one], the IC50 was 100 nM.

`Cc1nn2c(=O)c(-c3cnn(CCC(F)(F)F)c3)c(C(F)(F)F)nc2n1C` [Example 14, 2,3-dimethyl-5-(trifluoromethyl)-6-[1-(3,3,3-trifluoropropyl)-1H-pyrazol-4-yl]-3H,7H-[1,2,4]triazolo[1,5-a]pyrimidin-7-one]: the concentration for half-maximal inhibition (IC50) was 1430 nM.

For the compound `Cc1cn2c(=O)c(-c3cnn(CC(F)(F)C(F)(F)F)c3)c(C(F)(F)F)nc2n1-c1ccccn1` [Example 93, 2-methyl-6-[1-(2,2,3,3,3-pentafluoropropyl)-1H-pyrazol-4-yl]-1-(pyridin-2-yl)-7-(trifluoromethyl)-1H,5H-imidazo[1,2-a]pyrimidin-5-one], the IC50 worked out at 678 nM. Compared with the last compound, the IC50 is about 2.1-fold lower.

In the case of `Cc1cn2c(=O)c(-c3ccc(OCC(F)(F)F)cc3)c(C(F)(F)F)nc2n1CC1CC1` [Example 68, 1-(cyclopropylmethyl)-2-methyl-6-[4-(2,2,2-trifluoroethoxy)phenyl]-7-(trifluoromethyl)-1H,5H-imidazo[1,2-a]pyrimidin-5-one], it took 356 nM to reach half-maximal inhibition (IC50).

In turn, `C[C@@H]1Cn2c(nc(C(F)(F)F)c(-c3cnn(CC(F)(F)C(F)(F)F)c3)c2=O)S1` (single isomer, unassigned) [Example 114] registered an IC50 of 49.4 nM. This IC50 is about 7.2-fold lower than that of the compound before.

Compound `O=c1c(-c2ccc(OCC(F)(F)F)cc2)c(C(F)(F)F)nc2sccn12` [Example 31, 6-[4-(2,2,2-trifluoroethoxy)phenyl]-7-(trifluoromethyl)-5H-[1,3]thiazolo[3,2-a]pyrimidin-5-one] yielded an IC50 of 2.3 nM.

Consider `C#CCn1c(C)cn2c(=O)c(-c3cnn(CC(F)(F)C(F)(F)F)c3)c(C(F)(F)F)nc12` [Example 85, 2-methyl-6-[1-(2,2,3,3,3-pentafluoropropyl)-1H-pyrazol-4-yl]-1-(prop-2-yn-1-yl)-7-(trifluoromethyl)-1H,5H-imidazo[1,2-a]pyrimidin-5-one], for which half-maximal inhibition (IC50) required 7.1 nM.
